From patent publication US10206399B2, “Herbicidal composition comprising uracil compound as active ingredient” (Dongbu Farm Hannong Co., Ltd., priority 2012, dated 2019)
Like-named read-outs stand apart in the source and are kept apart here.

Assays:
Echinochloa crus [1] = conditions: for plant mortality, measured value: Echinochloa crus; for Echinochloa crus mortality, measured value: 20 days after treatment
From the text: (§1) X is % damage by uracil compound (a) of formula 1 at the rate of application of p kg/ha; Y is % damage by conventional herbicidal compound (b) at the rate of application of q kg/ha; and E is the expected damage caused by compounds (a) and (b) at a rate of application of p and q kg/ha.
(§2) The expected activity for a given combination of two herbicides can be calculated using equation 1 above.

Aeschynomene indica = conditions: for plant mortality, measured value: Aeschynomene indica; for Aeschynomene indica mortality, measured value: 20 days after treatment
From the text: as §1, §2

Digitaria sanguinalis = conditions: for plant mortality, measured value: Digitaria sanguinalis; for Digitaria sanguinalis mortality, measured value: 20 days after treatment
From the text: as §1, §2

Xanthium spinosum = conditions: for plant mortality, measured value: Xanthium spinosum; for Xanthium spinosum mortality, measured value: 20 days after treatment
From the text: as §1, §2

Abutilon theophrasti = conditions: for plant mortality, measured value: Abutilon theophrasti; for Abutilon theophrasti mortality, measured value: 20 days after treatment
From the text: as §1, §2

Monochoria vaginalis = experiment: Paddy field farming herbicidal composition test, plant mortality; type: in vivo
From the text: as §1, §2

Echinochloa crus [2] = experiment: as above; type: in vivo
From the text: as §1, §2

[3] = Pontederia vaginalis, read-out: Monochoria vaginalis mortality (measured value)
[4] = Echinochloa, read-out: Echinochloa crus mortality, measured value

O=C(O)COc1ccc(Cl)cc1Cl [2,4-D)]
Data (measured value) Echinochloa crus (Echinochloa crus [1]; 200 g/ha): 0 | Data (measured value) Echinochloa crus (Echinochloa crus [1]; 400 g/ha): 0 | Data (measured value) Aeschynomene indica (Aeschynomene indica; 200 g/ha): 24 | Data (measured value) Aeschynomene indica (Aeschynomene indica; 400 g/ha): 51 | Data (measured value) Digitaria sanguinalis (Digitaria sanguinalis; 200 g/ha): 0 | Data (measured value) Digitaria sanguinalis (Digitaria sanguinalis; 400 g/ha): 0 | Data (measured value) Xanthium spinosum (Xanthium spinosum; 200 g/ha): 22 | Data (measured value) Xanthium spinosum (Xanthium spinosum; 400 g/ha): 50 | Data (measured value) Abutilon theophrasti (Abutilon theophrasti; 200 g/ha): 21 | Data (measured value) Abutilon theophrasti (Abutilon theophrasti; 400 g/ha): 47

O=C(O)COc1ccc(Cl)cc1Cl [2,4-D]
Data (measured value) Echinochloa crus (Echinochloa crus [1]; 100 g/ha): 0 | plant mortality, measured value (Echinochloa crus [1]; 100 g/ha): 0 | plant mortality, measured value (Echinochloa crus [1]; 200 g/ha): 0 | plant mortality, measured value (Echinochloa crus [1]; 400 g/ha): 0 | Data (measured value) Aeschynomene indica (Aeschynomene indica; 100 g/ha): 7 | plant mortality, measured value (Aeschynomene indica; 100 g/ha): 7 | plant mortality, measured value (Aeschynomene indica; 200 g/ha): 24 | plant mortality, measured value (Aeschynomene indica; 400 g/ha): 51 | Data (measured value) Digitaria sanguinalis (Digitaria sanguinalis; 100 g/ha): 0 | plant mortality, measured value (Digitaria sanguinalis; 100 g/ha): 0 | plant mortality, measured value (Digitaria sanguinalis; 200 g/ha): 0 | plant mortality, measured value (Digitaria sanguinalis; 400 g/ha): 0 | Data (measured value) Xanthium spinosum (Xanthium spinosum; 100 g/ha): 10 | plant mortality, measured value (Xanthium spinosum; 100 g/ha): 10 | plant mortality, measured value (Xanthium spinosum; 200 g/ha): 22 | plant mortality, measured value (Xanthium spinosum; 400 g/ha): 50 | Data (measured value) Abutilon theophrasti (Abutilon theophrasti; 100 g/ha): 7 | plant mortality, measured value (Abutilon theophrasti; 100 g/ha): 7 | plant mortality, measured value (Abutilon theophrasti; 200 g/ha): 21 | plant mortality, measured value (Abutilon theophrasti; 400 g/ha): 47

C=CCOC(=O)C(C)(C)OC(=O)c1cc(-n2c(=O)cc(C(F)(F)F)n(C)c2=O)ccc1Cl [(Butafenacil]
plant mortality, measured value (Echinochloa crus [1]; 16 g/ha): 5 | plant mortality, measured value (Aeschynomene indica; 16 g/ha): 67 | plant mortality, measured value (Digitaria sanguinalis; 16 g/ha): 5 | plant mortality, measured value (Xanthium spinosum; 16 g/ha): 54 | plant mortality, measured value (Abutilon theophrasti; 16 g/ha): 51

CC(C)(NC(=O)C(Br)C(C)(C)C)c1ccccc1 (centres unmarked) [Bromobutide]
pest or weed control at 225 g/ha (Monochoria vaginalis; Pontederia vaginalis, 225 g/ha, read-out: Monochoria vaginalis mortality (measured value)): 50% | pest or weed control at 225 g/ha (Echinochloa crus [2]; Echinochloa, 225 g/ha, read-out: Echinochloa crus mortality (measured value)): 0%

CCN(CC)C(=O)n1cnc(S(=O)(=O)c2c(C)cc(C)cc2C)n1 [Cafenstrole]
pest or weed control at 50 g/ha (Monochoria vaginalis; [3]): 30% | pest or weed control at 50 g/ha (Echinochloa crus [2]; [4]): 20%

COCCOc1ccccc1S(=O)(=O)NC(=O)N=c1nc(OC)[nH]c(OC)n1 [Cinosulfuron]
pest or weed control at 10 g/ha (Monochoria vaginalis; [3]): 30% | pest or weed control at 10 g/ha (Echinochloa crus [2]; [4]): 20%

C[C@@H](Oc1ccc(Oc2ncc(Cl)cc2F)cc1)C(=O)O [Clodinafop, reference compound]
Echinochloa crus mortality, measured value (Echinochloa crus [1]; 15 g/ha): 25% | Echinochloa crus mortality, measured value (Echinochloa crus [1]; 30 g/ha): 53% | Aeschynomene indica mortality, measured value (Aeschynomene indica; 15 g/ha): 0% | Aeschynomene indica mortality, measured value (Aeschynomene indica; 30 g/ha): 0% | Digitaria sanguinalis mortality, measured value (Digitaria sanguinalis; 15 g/ha): 21% | Digitaria sanguinalis mortality, measured value (Digitaria sanguinalis; 30 g/ha): 50% | Xanthium spinosum mortality, measured value (Xanthium spinosum; 15 g/ha): 0% | Xanthium spinosum mortality, measured value (Xanthium spinosum; 30 g/ha): 0% | Abutilon theophrasti mortality, measured value (Abutilon theophrasti; 15 g/ha): 0% | Abutilon theophrasti mortality, measured value (Abutilon theophrasti; 30 g/ha): 0%

COc1cc(OC)nc(NC(=O)NS(=O)(=O)Nc2ccccc2C(=O)C2CC2)n1 [Cyclosulfamuron]
pest or weed control at 11 g/ha (Monochoria vaginalis; Pontederia vaginalis, 11 g/ha, read-out: Monochoria vaginalis mortality (measured value)): 50% | pest or weed control at 11 g/ha (Echinochloa crus [2]; Echinochloa, 11 g/ha, read-out: Echinochloa crus mortality (measured value)): 30%

CCN(C(=O)SCc1ccccc1)C(C)C(C)C (centres unmarked) [Esprocarb]
pest or weed control at 500 g/ha (Monochoria vaginalis; [3]): 30% | pest or weed control at 500 g/ha (Echinochloa crus [2]; [4]): 20%

CCOc1ccccc1OS(=O)(=O)NC(=O)Nc1nc(OC)cc(OC)n1 [Ethoxysulfuron]
pest or weed control at 15 g/ha (Monochoria vaginalis; [3]): 20% | pest or weed control at 15 g/ha (Echinochloa crus [2]; [4]): 10%

CCN(C(=O)n1nnn(-c2ccccc2Cl)c1=O)C1CCCCC1 [Fentrazamide]
pest or weed control at 50 g/ha (Monochoria vaginalis; [3]): 30% | pest or weed control at 50 g/ha (Echinochloa crus [2]; [4]): 20%

COc1cc(OC)nc(NC(=O)NS(=O)(=O)c2c(C(=O)O)c(Cl)nn2C)n1 [Halosulfuron]
pest or weed control at 11 g/ha (Monochoria vaginalis; [3]): 30% | pest or weed control at 11 g/ha (Echinochloa crus [2]; [4]): 30%

COc1cc(OC)nc(NC(=O)NS(=O)(=O)c2c(Cl)nc3ccccn23)n1 [Imazosulfuron]
pest or weed control at 18 g/ha (Monochoria vaginalis; Pontederia vaginalis, 18 g/ha, read-out: Monochoria vaginalis mortality (measured value)): 40% | pest or weed control at 18 g/ha (Echinochloa crus [2]; Echinochloa, 18 g/ha, read-out: Echinochloa crus mortality (measured value)): 20%

CCC1(CC2(c3cccc(Cl)c3)CO2)C(=O)c2ccccc2C1=O (centres unmarked) [Indanofan]
pest or weed control at 37.5 g/ha (Monochoria vaginalis; [3]): 0% | pest or weed control at 37.5 g/ha (Echinochloa crus [2]; [4]): 25%

Cc1cc(Cl)ccc1OCC(=O)O [MCPA]
Data (measured value) Echinochloa crus (Echinochloa crus [1]; 75 g/ha): 0 | Data (measured value) Echinochloa crus (Echinochloa crus [1]; 150 g/ha): 0 | Data (measured value) Echinochloa crus (Echinochloa crus [1]; 300 g/ha): 0 | Data (measured value) Aeschynomene indica (Aeschynomene indica; 75 g/ha): 11 | Data (measured value) Aeschynomene indica (Aeschynomene indica; 150 g/ha): 24 | Data (measured value) Aeschynomene indica (Aeschynomene indica; 300 g/ha): 58 | Data (measured value) Digitaria sanguinalis (Digitaria sanguinalis; 75 g/ha): 0 | Data (measured value) Digitaria sanguinalis (Digitaria sanguinalis; 150 g/ha): 0 | Data (measured value) Digitaria sanguinalis (Digitaria sanguinalis; 300 g/ha): 0 | Data (measured value) Xanthium spinosum (Xanthium spinosum; 75 g/ha): 8 | Data (measured value) Xanthium spinosum (Xanthium spinosum; 150 g/ha): 25 | Data (measured value) Xanthium spinosum (Xanthium spinosum; 300 g/ha): 59 | Data (measured value) Abutilon theophrasti (Abutilon theophrasti; 75 g/ha): 11 | Data (measured value) Abutilon theophrasti (Abutilon theophrasti; 150 g/ha): 32 | Data (measured value) Abutilon theophrasti (Abutilon theophrasti; 300 g/ha): 64

Cc1cc(Cl)ccc1OCCCC(=O)O [MCPB]
plant mortality, measured value (Echinochloa crus [1]; 75 g/ha): 9 | plant mortality, measured value (Echinochloa crus [1]; 150 g/ha): 27 | plant mortality, measured value (Echinochloa crus [1]; 300 g/ha): 57 | plant mortality, measured value (Aeschynomene indica; 75 g/ha): 13 | plant mortality, measured value (Aeschynomene indica; 150 g/ha): 32 | plant mortality, measured value (Aeschynomene indica; 300 g/ha): 64 | plant mortality, measured value (Digitaria sanguinalis; 75 g/ha): 12 | plant mortality, measured value (Digitaria sanguinalis; 150 g/ha): 25 | plant mortality, measured value (Digitaria sanguinalis; 300 g/ha): 56 | plant mortality, measured value (Xanthium spinosum; 75 g/ha): 12 | plant mortality, measured value (Xanthium spinosum; 150 g/ha): 27 | plant mortality, measured value (Xanthium spinosum; 300 g/ha): 58 | plant mortality, measured value (Abutilon theophrasti; 75 g/ha): 11 | plant mortality, measured value (Abutilon theophrasti; 150 g/ha): 22 | plant mortality, measured value (Abutilon theophrasti; 300 g/ha): 52

CN(C(=O)COc1nc2ccccc2s1)c1ccccc1 [Mefenacet]
pest or weed control at 200 g/ha (Monochoria vaginalis; [3]): 30% | pest or weed control at 200 g/ha (Echinochloa crus [2]; [4]): 30%

COc1cc(OC)nc(NC(=O)NS(=O)(=O)c2c(C3=NOCC(C)O3)c(Cl)nn2C)n1 (centres unmarked) [Metazosulfuron]
Monochoria vaginalis mortality (measured value) (Monochoria vaginalis; 25 g/ha): 40 | Echinochloa crus mortality, measured value (Echinochloa crus [2]; 25 g/ha): 35

COc1cc(OC)nc(NC(=O)NS(=O)(=O)Nc2ccccc2C(=O)N(C)C)n1 [Orthosulfamuron]
Monochoria vaginalis mortality (measured value) (Monochoria vaginalis; 17.5 g/ha): 40 | Echinochloa crus mortality, measured value (Echinochloa crus [2]; 17.5 g/ha): 10

CC1=C(c2ccccc2)C(=O)N(C(C)(C)c2cc(Cl)cc(Cl)c2)CO1 [Oxaziclomefone]
pest or weed control at 12.5 g/ha (Monochoria vaginalis; Pontederia vaginalis, 12.5 g/ha, read-out: Monochoria vaginalis mortality (measured value)): 0% | pest or weed control at 12.5 g/ha (Echinochloa crus [2]; Echinochloa, 12.5 g/ha, read-out: Echinochloa crus mortality (measured value)): 30%

CCCc1ccc2nc(Cl)c(S(=O)(=O)NC(=O)Nc3nc(OC)cc(OC)n3)n2n1 [Propyrisulfuron]
Monochoria vaginalis mortality (measured value) (Monochoria vaginalis; 18 g/ha): 45 | Echinochloa crus mortality, measured value (Echinochloa crus [2]; 18 g/ha): 45

COc1cccc(N(C)C(=S)Oc2cccc(C(C)(C)C)c2)n1 [Pyributicarb]
pest or weed control at 150 g/ha (Monochoria vaginalis; Pontederia vaginalis, 150 g/ha, read-out: Monochoria vaginalis mortality (measured value)): 20% | pest or weed control at 150 g/ha (Echinochloa crus [2]; Echinochloa, 150 g/ha, read-out: Echinochloa crus mortality (measured value)): 20%

CON=C(C)c1cccc(Oc2nc(OC)cc(OC)n2)c1C(=O)O [Pyriminobac]
Monochoria vaginalis mortality (measured value) (Monochoria vaginalis; 11 g/ha): 0 | Echinochloa crus mortality, measured value (Echinochloa crus [2]; 11 g/ha): 50

COCc1cccc(C(O)c2nc(OC)cc(OC)n2)c1NS(=O)(=O)C(F)F (centres unmarked) [Pyrimisulfan]
Monochoria vaginalis mortality (measured value) (Monochoria vaginalis; 16.5 g/ha): 50 | Echinochloa crus mortality, measured value (Echinochloa crus [2]; 16.5 g/ha): 40

COc1cc(OC)nc(Sc2cccc3c2C(=O)OC3C)n1 (centres unmarked) [Pyritlalid]
Monochoria vaginalis mortality (measured value) (Monochoria vaginalis; 37.5 g/ha): 0 | Echinochloa crus mortality, measured value (Echinochloa crus [2]; 37.5 g/ha): 30

NC1=C(Cl)C(=O)c2ccccc2C1=O [Quinoclamine]
Monochoria vaginalis mortality (measured value) (Monochoria vaginalis; 450 g/ha): 0 | Echinochloa crus mortality, measured value (Echinochloa crus [2]; 450 g/ha): 0

COc1nc(OC)nc(C(=O)c2cccc(F)c2N(C)S(=O)(=O)C(F)F)n1 [Triafamone]
Monochoria vaginalis mortality (measured value) (Monochoria vaginalis; 12.5 g/ha): 10 | Echinochloa crus mortality, measured value (Echinochloa crus [2]; 12.5 g/ha): 50

CCSC(=O)N1CCCCCC1 [molinate]
pest or weed control at 500 g/ha (Monochoria vaginalis; [3]): 0% | pest or weed control at 500 g/ha (Echinochloa crus [2]; [4]): 50%
